Experimental data from PubChem BioAssay (NCI).
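The concentration for 50% growth inhibition is given as GI50. TGI marks complete inhibition of growth.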

Assays:
Experiment in all cases: NCI-60 cell line screen, 384-well format
[1] = tested on: SN12C renal
[2] = tested on: IGROV1 ovarian
[3] = tested on: MOLT-4 leukemia
[4] = tested on: HT29 colon
[5] = tested on: UACC-257 melanoma
[6] = tested on: NCI-H460 NSCLC
[7] = tested on: SK-MEL-28 melanoma
[8] = tested on: NCI-H226 lung
[9] = tested on: SNB-19 CNS
[10] = tested on: HL-60(TB) leukemia
[11] = tested on: MDA-MB-435 melanoma
[12] = tested on: OVCAR-8 ovarian
[13] = tested on: SK-OV-3 ovarian
[14] = tested on: DU-145 prostate
[15] = tested on: UACC-62 melanoma
[16] = tested on: TK-10 renal
[17] = tested on: BT-549 breast
[18] = tested on: ACHN renal
[19] = tested on: SF-539 CNS
[20] = tested on: 786-0 renal
[21] = tested on: OVCAR-4 ovarian
[22] = tested on: SK-MEL-5 melanoma
[23] = tested on: NCI-H522 lung
[24] = tested on: HOP-62 NSCLC
[25] = tested on: CAKI-1 renal
[26] = tested on: LOX IMVI melanoma
[27] = tested on: K-562 leukemia
[28] = tested on: MALME-3M melanoma
[29] = tested on: UO-31 renal
[30] = tested on: NCI-H23 lung
[31] = tested on: OVCAR-5 ovarian
[32] = tested on: SR leukemia
[33] = tested on: OVCAR-3 ovarian
[34] = tested on: MDA-MB-468 breast
[35] = tested on: T-47D breast
[36] = tested on: HCT-15 colon
[37] = tested on: SF-268 CNS
[38] = tested on: NCI-H322M lung
[39] = tested on: SNB-75 CNS
[40] = tested on: EKVX NSCLC
[41] = tested on: RPMI-8226 leukemia
[42] = tested on: SW-620 colon
[43] = tested on: NCI/ADR-RES ovarian
[44] = tested on: M14 melanoma
[45] = tested on: MDA-MB-231 breast
[46] = tested on: HS 578T breast
[47] = tested on: KM12 colon
[48] = tested on: HCC-2998 colon
[49] = tested on: RXF 393 renal
[50] = tested on: COLO 205 colon
[51] = tested on: CCRF-CEM leukemia
[52] = tested on: SF-295 CNS
[53] = tested on: A498 renal
[54] = tested on: MCF7 breast
[55] = tested on: HOP-92 NSCLC
[56] = tested on: A549 NSCLC
[57] = tested on: PC-3 prostate
[58] = tested on: U251 glioblastoma

With `Cc1cncc(-c2nc(NCCc3c[nH]c4ccccc34)c3ncn(C(C)C)c3n2)c1` the GI50 [1] was 5320 nM, the TGI [1] was 17.2 µM and the GI50 [2] was 4190 nM. The TGI [2] was 14.8 µM, the GI50 [3] was 1870 nM and the TGI [3] was 3550 nM. For the same compound, the GI50 [4] was 1710 nM, the TGI [4] was 3.19 µM and the GI50 [5] was 2040 nM. It also gave a TGI [5] of 3540 nM, a GI50 [6] of 2260 nM and a TGI [6] of 4530 nM. It also gave a GI50 [7] of 1890 nM, a TGI [7] of 3.94 µM and a GI50 [8] of 4340 nM. It also gave a TGI [8] of 11.3 µM, a GI50 [9] of 5500 nM and a TGI [9] of 18.8 µM. It also gave a GI50 [10] of 1730 nM, a TGI [10] of 3150 nM and a GI50 [11] of 5520 nM. The TGI [11] was 17.8 µM, the GI50 [12] was 4050 nM and the TGI [12] was 13.6 µM. For the same compound, the GI50 [13] was 3.99 µM, the TGI [13] was 12.3 µM and the GI50 [14] was 3470 nM. It also gave a TGI [14] of 11.1 µM, a GI50 [15] of 2560 nM and a TGI [15] of 5.81 µM. It also gave a GI50 [16] of 3.12 µM, a TGI [16] of 13.2 µM and a GI50 [17] of 4910 nM. It also gave a TGI [17] of 15.4 µM, a GI50 [18] of 4.17 µM and a TGI [18] of 13.5 µM. The GI50 [19] was 2630 nM, the TGI [19] was 7.18 µM and the GI50 [20] was 1760 nM. For the same compound, the TGI [20] was 3.65 µM, the GI50 [21] was 3370 nM and the TGI [21] was 9.2 µM. The GI50 [22] was 2500 nM, the TGI [22] was 7.39 µM and the GI50 [23] was 4420 nM. For the same compound, the TGI [23] was 13.1 µM, the GI50 [24] was 2920 nM and the TGI [24] was 8.22 µM. The GI50 [25] was 3.96 µM, the TGI [25] was 12.7 µM and the GI50 [26] was 4150 nM. For the same compound, the TGI [26] was 13.9 µM, the GI50 [27] was 1890 nM and the TGI [27] was 3470 nM. For the same compound, the GI50 [28] was 1770 nM, the TGI [28] was 3240 nM and the GI50 [29] was 4640 nM. For the same compound, the TGI [29] was 17.3 µM, the GI50 [30] was 3810 nM and the TGI [30] was 12.8 µM. It also gave a GI50 [31] of 2060 nM, a TGI [31] of 4.73 µM and a GI50 [32] of 1470 nM. The TGI [32] was 3020 nM, the GI50 [33] was 4650 nM and the TGI [33] was 14.3 µM. The GI50 [34] was 2210 nM, the TGI [34] was 4140 nM and the GI50 [35] was 3.57 µM. For the same compound, the TGI [35] was 10.9 µM, the GI50 [36] was 1770 nM and the TGI [36] was 3290 nM. It also gave a GI50 [37] of 3930 nM, a TGI [37] of 12.8 µM and a GI50 [38] of 3060 nM. The TGI [38] was 10.1 µM, the GI50 [39] was 4460 nM and the TGI [39] was 16.8 µM. The GI50 [40] was 4240 nM, the TGI [40] was 14 µM and the GI50 [41] was 2200 nM. The TGI [41] was 3780 nM, the GI50 [42] was 2110 nM and the TGI [42] was 3.74 µM. The GI50 [43] was 3290 nM, the TGI [43] was 9.08 µM and the GI50 [44] was 2840 nM. It also gave a TGI [44] of 6.11 µM, a GI50 [45] of 4160 nM and a TGI [45] of 12 µM. For the same compound, the GI50 [46] was 2520 nM, the TGI [46] was 5.41 µM and the GI50 [47] was 2070 nM. It also gave a TGI [47] of 4210 nM, a GI50 [48] of 2500 nM and a TGI [48] of 5000 nM. The GI50 [49] was 1960 nM, the TGI [49] was 4630 nM and the GI50 [50] was 2280 nM. For the same compound, the TGI [50] was 4290 nM, the GI50 [51] was 2110 nM and the TGI [51] was 4220 nM. The GI50 [52] was 1930 nM, the TGI [52] was 3930 nM and the GI50 [53] was 2390 nM. It also gave a TGI [53] of 6.39 µM, a GI50 [54] of 3.42 µM and a TGI [54] of 9.2 µM. It also gave a GI50 [55] of 3760 nM, a TGI [55] of 10.5 µM and a GI50 [56] of 3.84 µM. The TGI [56] was 14.1 µM, the GI50 [57] was 3190 nM and the TGI [57] was 8.62 µM.

With `CCC(CC)c1cc(N[C@H]2CC[C@H](N)C2)n2nccc2n1` the GI50 [1] was 241 nM, the TGI [1] was 0.598 µM and the GI50 [2] was 414 nM. The TGI [2] was greater than 100 µM, the GI50 [3] was 247 nM and the TGI [3] was 528 nM. It also gave a GI50 [58] of 334 nM, a TGI [58] of 995 nM and a GI50 [4] of 406 nM. For the same compound, the TGI [4] was greater than 100 µM, the GI50 [5] was 553 nM and the TGI [5] was 1770 nM. It also gave a GI50 [6] of 195 nM, a TGI [6] of 461 nM and a GI50 [7] of 969 nM. For the same compound, the TGI [7] was 2.22 µM, the GI50 [8] was 226 nM and the TGI [8] was 0.513 µM. The GI50 [9] was 377 nM, the TGI [9] was greater than 100 µM and the GI50 [10] was 214 nM. It also gave a TGI [10] of 378 nM, a GI50 [11] of 320 nM and a TGI [11] of 0.903 µM. It also gave a GI50 [12] of 329 nM, a TGI [12] of 1.76 µM and a GI50 [14] of 313 nM. It also gave a TGI [14] of 0.933 µM, a GI50 [17] of 207 nM and a TGI [17] of 0.459 µM. It also gave a GI50 [19] of 210 nM, a TGI [19] of 0.452 µM and a GI50 [21] of 192 nM. It also gave a TGI [21] of 0.414 µM, a GI50 [22] of 182 nM and a TGI [22] of 0.331 µM. For the same compound, the GI50 [23] was 209 nM, the TGI [23] was 0.455 µM and the GI50 [24] was 234 nM. The TGI [24] was 0.532 µM, the GI50 [26] was 190 nM and the TGI [26] was 0.343 µM. It also gave a GI50 [27] of 345 nM, a TGI [27] of 1230 nM and a GI50 [28] of 761 nM. The TGI [28] was 1950 nM, the GI50 [29] was 388 nM and the TGI [29] was 1.97 µM. It also gave a GI50 [30] of 220 nM, a TGI [30] of 0.505 µM and a GI50 [31] of 392 nM. The TGI [31] was greater than 100 µM, the GI50 [32] was 125 nM and the TGI [32] was 253 nM. For the same compound, the GI50 [33] was 200 nM, the TGI [33] was 0.411 µM and the GI50 [34] was 254 nM. It also gave a TGI [34] of 612 nM, a GI50 [36] of 348 nM and a TGI [36] of 1390 nM. The GI50 [37] was 274 nM, the TGI [37] was 0.724 µM and the GI50 [38] was 403 nM. For the same compound, the TGI [38] was 1.51 µM, the GI50 [39] was 380 nM and the TGI [39] was 1.19 µM. The GI50 [40] was 516 nM, the TGI [40] was 2.65 µM and the GI50 [41] was 181 nM. It also gave a TGI [41] of 337 nM, a GI50 [42] of 360 nM and a TGI [42] of 8 µM. The GI50 [43] was 2250 nM, the TGI [43] was 9.28 µM and the GI50 [44] was 276 nM. The TGI [44] was 0.766 µM, the GI50 [45] was 269 nM and the TGI [45] was 0.778 µM. The GI50 [46] was 269 nM, the TGI [46] was 0.628 µM and the GI50 [47] was 295 nM. The TGI [47] was 906 nM, the GI50 [48] was 235 nM and the TGI [48] was 572 nM. The GI50 [49] was 191 nM, the TGI [49] was 366 nM and the GI50 [50] was 267 nM. It also gave a TGI [50] of 646 nM, a GI50 [51] of 210 nM and a TGI [51] of 423 nM. The GI50 [52] was 223 nM, the TGI [52] was 499 nM and the GI50 [53] was 218 nM. For the same compound, the TGI [53] was 0.457 µM, the GI50 [55] was 340 nM and the TGI [55] was 24.3 µM. The GI50 [57] was 262 nM and the TGI [57] was 0.723 µM.
